The values that follow come from paper PMC6199744, “Development of Chemical Proteomics for the Folateome and Analysis of the Kinetoplastid Folateome” (ACS Infectious Diseases, 2018).

Read-outs that look alike come from different tables or passages of the source.

Assay type in all cases: binding
The target of experiment [1] is T1, HeLa cell extract proteins (Homo sapiens, UniProt P61978).
T1 construct: endogenous in cells; host or cells: HeLa cell extract

The target of experiment [2] is T2, HeLa cell extract proteins (Homo sapiens, UniProt Q9NQX3).
T2 construct: endogenous in cells; host or cells: HeLa cell extract
T2 sequence (Q9NQX3 1-736): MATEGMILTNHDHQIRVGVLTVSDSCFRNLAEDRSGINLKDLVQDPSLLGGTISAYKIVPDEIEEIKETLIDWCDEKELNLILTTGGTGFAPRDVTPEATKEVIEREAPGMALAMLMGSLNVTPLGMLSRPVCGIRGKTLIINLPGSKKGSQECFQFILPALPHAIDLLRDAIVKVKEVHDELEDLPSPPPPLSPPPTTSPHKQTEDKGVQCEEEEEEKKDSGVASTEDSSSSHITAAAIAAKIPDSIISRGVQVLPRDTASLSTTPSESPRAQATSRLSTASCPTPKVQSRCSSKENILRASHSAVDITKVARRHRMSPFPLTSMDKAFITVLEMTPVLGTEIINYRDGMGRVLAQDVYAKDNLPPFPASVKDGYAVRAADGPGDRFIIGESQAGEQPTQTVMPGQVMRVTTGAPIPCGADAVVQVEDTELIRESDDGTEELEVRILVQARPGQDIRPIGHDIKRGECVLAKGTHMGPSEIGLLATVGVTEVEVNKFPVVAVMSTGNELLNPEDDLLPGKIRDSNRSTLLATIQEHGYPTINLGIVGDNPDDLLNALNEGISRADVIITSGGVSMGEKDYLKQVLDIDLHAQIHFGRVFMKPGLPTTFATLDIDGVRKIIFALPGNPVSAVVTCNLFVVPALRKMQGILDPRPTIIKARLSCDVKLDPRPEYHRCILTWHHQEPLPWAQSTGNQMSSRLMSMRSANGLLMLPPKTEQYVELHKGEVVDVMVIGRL

The target in experiment [3] is T3, HeLa cell extract proteins (Homo sapiens, UniProt P50991).
T3 construct: endogenous in cells; host or cells: HeLa cell extract
T3 sequence (P50991 1-539): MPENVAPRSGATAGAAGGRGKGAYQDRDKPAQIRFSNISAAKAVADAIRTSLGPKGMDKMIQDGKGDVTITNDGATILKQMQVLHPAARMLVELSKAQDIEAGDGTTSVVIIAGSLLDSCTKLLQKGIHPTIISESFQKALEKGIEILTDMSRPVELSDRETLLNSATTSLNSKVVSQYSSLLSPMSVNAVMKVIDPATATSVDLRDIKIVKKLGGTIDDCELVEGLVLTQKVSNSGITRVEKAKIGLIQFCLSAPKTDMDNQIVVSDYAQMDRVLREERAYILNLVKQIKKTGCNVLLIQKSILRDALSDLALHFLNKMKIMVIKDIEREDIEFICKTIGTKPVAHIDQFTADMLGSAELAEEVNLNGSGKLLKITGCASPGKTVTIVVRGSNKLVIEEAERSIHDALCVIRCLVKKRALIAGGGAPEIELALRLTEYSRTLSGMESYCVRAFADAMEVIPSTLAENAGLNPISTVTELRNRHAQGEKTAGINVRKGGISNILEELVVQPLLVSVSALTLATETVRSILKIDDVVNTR

For experiment [4], the target named is T4, HeLa cell extract proteins (Homo sapiens, UniProt Q8NCG7).
T4 construct: endogenous in cells; host or cells: HeLa cell extract
T4 sequence (Q8NCG7 1-672): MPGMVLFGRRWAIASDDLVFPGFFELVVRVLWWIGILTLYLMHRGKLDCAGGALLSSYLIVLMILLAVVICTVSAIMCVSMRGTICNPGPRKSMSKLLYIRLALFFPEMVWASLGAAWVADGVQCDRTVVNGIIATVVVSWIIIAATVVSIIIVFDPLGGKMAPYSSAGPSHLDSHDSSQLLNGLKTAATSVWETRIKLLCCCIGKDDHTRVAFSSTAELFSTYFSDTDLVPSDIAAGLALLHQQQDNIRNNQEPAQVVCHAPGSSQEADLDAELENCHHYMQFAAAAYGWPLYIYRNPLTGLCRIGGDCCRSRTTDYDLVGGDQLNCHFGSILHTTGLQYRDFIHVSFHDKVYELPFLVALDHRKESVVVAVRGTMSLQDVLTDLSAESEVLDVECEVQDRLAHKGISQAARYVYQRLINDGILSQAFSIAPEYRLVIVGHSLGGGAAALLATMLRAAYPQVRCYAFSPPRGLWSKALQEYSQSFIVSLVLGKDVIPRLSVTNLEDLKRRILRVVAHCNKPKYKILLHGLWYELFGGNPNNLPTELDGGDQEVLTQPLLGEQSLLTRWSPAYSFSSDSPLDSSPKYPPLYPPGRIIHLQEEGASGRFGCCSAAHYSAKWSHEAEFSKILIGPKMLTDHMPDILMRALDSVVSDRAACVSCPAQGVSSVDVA

For experiment [5], the target named is T5, HeLa cell extract proteins (Homo sapiens, UniProt Q96KA5).
T5 construct: endogenous in cells; host or cells: HeLa cell extract
T5 sequence (Q96KA5 1-538): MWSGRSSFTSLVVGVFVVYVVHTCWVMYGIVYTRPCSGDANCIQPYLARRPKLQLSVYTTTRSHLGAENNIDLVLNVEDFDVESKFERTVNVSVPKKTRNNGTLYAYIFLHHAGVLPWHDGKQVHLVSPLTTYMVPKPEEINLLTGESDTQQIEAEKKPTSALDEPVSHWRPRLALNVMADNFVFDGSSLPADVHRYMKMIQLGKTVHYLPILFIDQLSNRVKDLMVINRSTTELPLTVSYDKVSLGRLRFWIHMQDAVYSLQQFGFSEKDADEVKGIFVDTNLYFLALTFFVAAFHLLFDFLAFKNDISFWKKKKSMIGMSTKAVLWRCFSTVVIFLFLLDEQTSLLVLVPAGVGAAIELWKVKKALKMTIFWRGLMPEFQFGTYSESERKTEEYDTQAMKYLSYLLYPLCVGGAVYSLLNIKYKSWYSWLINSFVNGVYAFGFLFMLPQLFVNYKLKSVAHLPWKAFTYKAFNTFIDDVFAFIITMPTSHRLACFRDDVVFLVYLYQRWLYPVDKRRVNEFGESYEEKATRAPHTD

For experiment [6], the target named is T6, HeLa cell extract proteins (Homo sapiens, UniProt P04183).
T6 construct: endogenous in cells; host or cells: HeLa cell extract
T6 sequence (P04183 1-234): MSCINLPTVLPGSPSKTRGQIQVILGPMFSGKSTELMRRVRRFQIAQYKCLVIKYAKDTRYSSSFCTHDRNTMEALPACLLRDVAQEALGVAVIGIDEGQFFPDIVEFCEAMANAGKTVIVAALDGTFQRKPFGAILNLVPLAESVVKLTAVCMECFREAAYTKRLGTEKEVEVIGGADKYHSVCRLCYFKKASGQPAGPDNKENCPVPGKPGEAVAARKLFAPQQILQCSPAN

In experiment [7] the target is T7, HeLa cell extract proteins (Homo sapiens, UniProt P40939).
T7 construct: endogenous in cells; host or cells: HeLa cell extract

Setting [8] is: HeLa, protein TK1 (29 KDA PROTEIN).

T7 sequence (P40939 37-763): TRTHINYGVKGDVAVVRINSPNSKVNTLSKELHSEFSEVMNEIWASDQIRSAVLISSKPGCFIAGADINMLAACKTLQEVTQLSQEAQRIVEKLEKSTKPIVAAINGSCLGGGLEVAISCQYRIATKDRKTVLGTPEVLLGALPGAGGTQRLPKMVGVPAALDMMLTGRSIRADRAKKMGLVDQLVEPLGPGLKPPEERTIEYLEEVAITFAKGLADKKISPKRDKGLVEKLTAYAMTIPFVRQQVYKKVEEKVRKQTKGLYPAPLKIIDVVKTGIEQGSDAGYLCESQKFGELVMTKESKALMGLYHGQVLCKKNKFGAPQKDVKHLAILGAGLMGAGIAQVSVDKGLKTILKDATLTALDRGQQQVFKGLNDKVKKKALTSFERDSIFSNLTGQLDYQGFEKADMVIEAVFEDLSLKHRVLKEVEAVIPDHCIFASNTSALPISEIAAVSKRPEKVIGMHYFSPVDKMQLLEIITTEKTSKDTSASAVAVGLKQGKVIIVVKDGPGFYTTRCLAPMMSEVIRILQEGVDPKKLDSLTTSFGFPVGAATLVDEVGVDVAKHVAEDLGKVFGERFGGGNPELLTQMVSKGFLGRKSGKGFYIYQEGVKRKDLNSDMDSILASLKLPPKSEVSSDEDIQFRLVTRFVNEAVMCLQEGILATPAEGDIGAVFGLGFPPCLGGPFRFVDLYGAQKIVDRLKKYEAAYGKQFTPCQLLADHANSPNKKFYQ

Turning to `Nc1nc2c(c(=O)[nH]1)N(C=O)C(CNc1ccc(C(=O)N[C@@H](CCC(=O)O)C(=O)O)cc1)CN2` (stereo partly shown) [LEU, leucovorin], the “fold changes relative to vehicle control” value in experiment [1] (HeLa, protein HNRNPK) is reported as 0.94; in experiment [2] (HeLa, captured protein GPHN), 0.81; in experiment [3] (protein CCT4, HeLa) it was 1; in experiment [4] (HeLa, protein DAGLB) it was 1.01; in experiment [5] (protein CLPTM1L, HeLa), 0.77; in experiment [6] (setting [8]) it was 0.97. The “fold changes relative to vehicle control” value in experiment [7] (HeLa, protein HADHA) is given as 0.9.

Consider `Nc1nc2[nH]cc(CCc3ccc(C(=O)N[C@@H](CCC(=O)O)C(=O)O)cc3)c2c(=O)[nH]1` [PTX, pemetrexed], for which the “fold changes relative to vehicle control” value in experiment [1] is 0.96; in experiment [2], 0.83; in experiment [3] it was 1.01; in experiment [4], 0.88; in experiment [5], 0.91; in experiment [6] it was 0.93. Besides, in experiment [7], the “fold changes relative to vehicle control” value stood at 0.89.

On to `CCCCCCOc1ccc(Cc2cnc(N)nc2N)cc1` [compound 1], for which the “fold changes relative to vehicle control” value in experiment [1] (protein HNRNPK, HeLa) is recorded as 0.99; in experiment [2] (protein GPHN, HeLa) it was 0.94; in experiment [3] (protein CCT4, HeLa), 1.25; in experiment [4] (captured protein DAGLB, HeLa), 1.02; in experiment [5] (captured protein CLPTM1L, HeLa), 0.84; in experiment [6] (protein TK1, HeLa), 0.96. Moreover, the “fold changes relative to vehicle control” value in experiment [7] (protein HADHA, HeLa) was 1.

Take `CCCCCCOc1cccc(Cc2cnc(N)nc2N)c1` [compound 2]: the “fold changes relative to vehicle control” value was 1.39 in experiment [1] (protein HNRNPK, HeLa); 0.93 in experiment [2] (protein GPHN, HeLa); 1.73 in experiment [3] (protein CCT4, HeLa); 1.07 in experiment [4] (captured protein DAGLB, HeLa); 1.05 in experiment [5] (captured protein CLPTM1L, HeLa); 1.16 in experiment [6] (protein TK1, HeLa). The “fold changes relative to vehicle control” value in experiment [7] (protein HADHA, HeLa) was found to be 1.45.

Turning to `Nc1nc2cccc(-c3ccccc3)c2n1Cc1ccc(Cl)c(Cl)c1` [compound 3], the “fold changes relative to vehicle control” value in experiment [1] (protein HNRNPK, HeLa) worked out at 1.02; in experiment [2] (protein GPHN, HeLa), 0.96; in experiment [3] (protein CCT4, HeLa), 1; in experiment [4] (captured protein DAGLB, HeLa) it was 0.97; in experiment [5] (captured protein CLPTM1L, HeLa), 1.14; in experiment [6] (protein TK1, HeLa), 1.16. Also, in experiment [7] (protein HADHA, HeLa), the “fold changes relative to vehicle control” value came to 1.07.

For `NCCOCCOCC(=O)Nc1nc2ncc(CNc3ccc(C(=O)NC(CCC(=O)O)C(=O)O)cc3)nc2c(=O)[nH]1` (stereo not shown) [compound 6], the “fold changes relative to vehicle control” value in experiment [1] (HeLa, protein HNRNPK) was 1.13; in experiment [2] (HeLa, captured protein GPHN), 0.99; in experiment [3] (protein CCT4, HeLa), 1.14; in experiment [4] (HeLa, protein DAGLB), 1.07; in experiment [5] (protein CLPTM1L, HeLa), 1.01; in experiment [6] (setting [8]) it was 1.06. Also, the “fold changes relative to vehicle control” value in experiment [7] (HeLa, protein HADHA) is reported as 1.05.

For the molecule `NCCCNc1ccc(C(=O)NC(CCC(=O)O)C(=O)O)cc1` (stereo not shown) [compound 7], the “fold changes relative to vehicle control” value in experiment [1] (HeLa, protein HNRNPK) is reported as 0.95; in experiment [2] (HeLa, captured protein GPHN), 1.03; in experiment [3] (protein CCT4, HeLa), 0.94; in experiment [4] (HeLa, protein DAGLB), 1.04; in experiment [5] (protein CLPTM1L, HeLa), 0.9; in experiment [6] (setting [8]) it was 1.12. Besides, in experiment [7] (HeLa, protein HADHA), the “fold changes relative to vehicle control” value is 0.99.
